Measurements published in article PMC12116762, “Topobexin targets the Topoisomerase II ATPase domain for beta isoform-selective inhibition and anthracycline cardioprotection” (Nature Communications, 2025).
“And” between values parts separate entries of the source, which are not always exact repeats. Equal values may be shown once. Read-outs that look alike come from different tables or passages of the source.

How the values were obtained:
rabbits = assay: Chronic anthracycline cardiotoxicity model in rabbits
Method: Thirty-eight rabbits were used for this purpose using the following study design. Chronic cardiotoxicity was induced by DAU (3 mg/kg, i.v., once weekly for 10 weeks, n = 11), while the control group received the same volume of saline (1 ml/kg, n = 9) in the same way. […] Animal survival was monitored daily, while body weight change was recorded weekly. The experiment was scheduled to end a week after the last dosing of the compounds studied.
Cardiac damage induced by DAU was quantified by determination of cardiac troponin T in plasma before the 1st, 5th, 8th and 10th doses and at the end of the study using a high sensitivity assay (Elecsys Troponin T high sensitive STAT test, Roche Diagnostics, Switzerland, detection limit of 0.003 μg/L). The area under curve (AUC) of the plasma concentration of cardiac troponin T was determined using GraphPad Prism.
The systolic function of the LV was examined throughout the experiment without invasiveness using echocardiography (Vivid 4, probe 10.5 MHz, GE HeathCare) and invasively at the scheduled end of the experiment using LV catheterization (a Millar catheter 2.3 F, Millar Instruments, USA). In the echocardiography examination, the M-mode was used to determine the dimensions of the LV and the fractional shortening of the LV (LVFS) was calculated as an index of systolic function as described previously[46]. Similarly, from the change in LV pressures determined by catheterization of the LV, dP/dtmax was calculated as an index of systolic function as previously described[47]. Statistical significance was determined using one way ANOVA followed by the Holm–Sidak post hoc test or Kruskal–Wallis ANOVA on ranks followed by Dunn’s post hoc test according to the data distribution.
During necropsy, heart was rapidly excised, washed in cold saline and LV free wall was snap frozen in liquid nitrogen. After homogenization in liquid nitrogen, aliquots (aprox. 50 mg) were stored at -80 °C and used for PCR analysis of molecular markers of cardiotoxicity. Total RNA was isolated from rabbit LV myocardium using TRIzol reagent (Sigma-Aldrich). After reverse transcription using a High-Capacity cDNA Reverse Transcription Kit, qPCR was performed with TaqMan Fast Universal PCR Master Mix on QuantStudio 7 Flex Real-Time PCR System (all from Applied Biosystems, Foster City). […] Mean threshold cycle values were transformed into relative expression using the Pfaffl method. Commercial gene expression assays were obtained from Applied Biosystems and Generi Biotech (Hradec Králové, Czech Republic). The expression data were normalized by Hprt1 expression. Statistical significance was determined using one way ANOVA followed by the Holm–Sidak post hoc test or Kruskal–Wallis ANOVA on ranks followed by Dunn’s post hoc test according to the data distribution.

recombinant human TOP2B = target: T1, recombinant human TOP2B (Homo sapiens, UniProt Q02880); assay: In vitro ATPase activity of TOP2B (coupled assay); format: biochemical
T1 construct: Using recombinant full-length human TOP2A and TOP2B enzymes; YFP (N, cleaved yes); made in house; host or cells: HEK293F
How it was run: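 Recombinant human TOP2A or TOP2B, prediluted to 500 nM in HEPES pH 7.5/500 mM NaCl storage buffer, in an NADH-coupled ATP hydrolysis assay, ATP-initiated at 30 °C. NADH fluorescence decay (ex 340, em 480) read every 30 s for 120 cycles. Slopes background-corrected, normalized to untreated controls, and fitted for IC50.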

γH2AX = γH2AX levels in HL-60 cells (Western blotting); format: cell-based, human; conditions: for γH2AX level, mean of independent replicates: DAU mean = 100, Suppl.Fig.8d
caspase 9 = assay: Caspase 9 activity in NVCM (Caspase-Glo); format: cell-based, rat; conditions: for Csp9 activity: independent replicates
Method: (§1) Caspase activity was assessed on NVCM cells using luciferase-based kits for caspase 3/7, 8 and 9 (Caspase-Glo® 3/7, 8 and 9 assay systems; Promega) according to the manufacturer’s instructions on 384-well plates (Greiner Bio-One). Luminescence signal was measured using Tecan M200 multifunctional plate-reader. All measured groups were corrected for total protein concentration (BCA assay) and were expressed as fold change of the signal over corresponding untreated control group. Each presented data point was obtained from distinct sample. Statistical significance was determined using ratio paired t-test, two-tailed.

caspase 3/7 = assay: Caspase 3/7 activity in NVCM (Caspase-Glo); format: cell-based, rat; conditions: for Csp3/7 activity: independent replicates
Method: as §1

[1] = system: neonatal rat ventricular cardiomyocytes (NVCM); assay: Protection against DAU-induced cytotoxicity (LDH release) in NVCM; format: cell-based; conditions: for LDH release: independent replicates
How it was run: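 Primary neonatal Wistar rat cardiomyocytes in serum- and pyruvate-free DMEM/F12 were pretreated with compound 3 h, then co-incubated 3 h with DAU (1.2 µM), or without DAU for inherent toxicity, then given a 48 h drug-free follow-up. Medium LDH activity (NAD+ reduction at 340 nm) expressed as % of total LDH.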

[2] = Topobexin alone, individual animals
[3] = Topobexin+DAU, individual animals

T1 sequence (Q02880 1-1621 isoform Q02880-2): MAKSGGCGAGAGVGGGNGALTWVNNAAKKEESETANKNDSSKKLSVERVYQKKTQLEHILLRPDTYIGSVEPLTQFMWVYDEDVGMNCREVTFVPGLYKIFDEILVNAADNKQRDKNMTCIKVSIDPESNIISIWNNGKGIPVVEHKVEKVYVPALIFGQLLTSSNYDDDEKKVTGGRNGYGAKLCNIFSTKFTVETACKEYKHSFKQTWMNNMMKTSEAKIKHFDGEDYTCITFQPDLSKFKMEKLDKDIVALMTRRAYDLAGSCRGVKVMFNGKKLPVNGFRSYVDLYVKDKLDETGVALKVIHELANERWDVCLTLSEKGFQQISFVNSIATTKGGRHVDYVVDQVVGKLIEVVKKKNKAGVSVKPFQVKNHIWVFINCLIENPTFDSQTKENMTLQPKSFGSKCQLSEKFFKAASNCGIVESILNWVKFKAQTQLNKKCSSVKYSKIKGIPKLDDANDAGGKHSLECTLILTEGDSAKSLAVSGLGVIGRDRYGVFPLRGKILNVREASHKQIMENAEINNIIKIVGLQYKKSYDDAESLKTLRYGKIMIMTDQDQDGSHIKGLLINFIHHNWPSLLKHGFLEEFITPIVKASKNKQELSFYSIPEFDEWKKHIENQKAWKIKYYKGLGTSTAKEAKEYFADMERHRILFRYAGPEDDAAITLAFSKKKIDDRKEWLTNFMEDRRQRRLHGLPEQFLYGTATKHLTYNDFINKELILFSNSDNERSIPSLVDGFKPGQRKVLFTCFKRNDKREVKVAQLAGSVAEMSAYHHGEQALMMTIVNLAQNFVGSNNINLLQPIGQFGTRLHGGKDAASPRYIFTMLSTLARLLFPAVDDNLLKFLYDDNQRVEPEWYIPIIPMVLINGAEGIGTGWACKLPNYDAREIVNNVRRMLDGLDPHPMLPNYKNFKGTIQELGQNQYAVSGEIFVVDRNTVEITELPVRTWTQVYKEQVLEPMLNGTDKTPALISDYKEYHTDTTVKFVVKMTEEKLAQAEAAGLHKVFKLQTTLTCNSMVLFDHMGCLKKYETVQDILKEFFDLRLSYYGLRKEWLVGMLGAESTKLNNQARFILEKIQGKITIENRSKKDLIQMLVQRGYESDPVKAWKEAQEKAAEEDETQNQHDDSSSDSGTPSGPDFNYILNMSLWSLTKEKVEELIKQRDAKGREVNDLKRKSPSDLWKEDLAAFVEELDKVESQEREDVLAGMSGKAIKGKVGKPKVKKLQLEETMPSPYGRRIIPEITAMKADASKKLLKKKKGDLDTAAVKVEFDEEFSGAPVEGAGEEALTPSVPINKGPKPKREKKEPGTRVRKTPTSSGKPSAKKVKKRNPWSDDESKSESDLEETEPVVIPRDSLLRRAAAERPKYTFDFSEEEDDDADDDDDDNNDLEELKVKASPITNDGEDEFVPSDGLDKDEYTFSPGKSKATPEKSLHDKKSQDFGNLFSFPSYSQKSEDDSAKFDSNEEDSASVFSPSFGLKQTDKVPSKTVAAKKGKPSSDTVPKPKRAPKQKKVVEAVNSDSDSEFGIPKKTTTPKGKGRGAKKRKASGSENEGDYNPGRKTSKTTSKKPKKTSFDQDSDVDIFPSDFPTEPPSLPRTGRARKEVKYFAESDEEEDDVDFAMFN

Structure (SMILES): CCCc1cc(=O)oc2c(C(=O)N3CCCc4ccccc43)c(OCCN3CCN(C)CC3)ccc12 [topobexin (9)]
- Body weight gain (rabbits; [2]): 141.3 and 136.4 and 124.5 and 123.7 and 134.0 and 143.6 and 132.0
- Brain natriuretic peptide mRNA, LV myocardium (rabbits; [2]): 3.72 and 0.42 and 0.55 and 0.81 and 0.90 and 0.28 and 2.33
- Collagen I alpha 1 mRNA (rabbits; [2]): 1.54 and 1.27 and 0.81 and 0.88 and 1.14 and 1.41 and 1.19
- Fibronectin 1 mRNA (rabbits; [2]): 1.41 and 1.30 and 1.55 and 1.58 and 1.78
- LV FS (LMV) (rabbits; [2]): 42.0 and 40.5 and 42.5 and 43.5 and 39.0 and 43.0
- LV dP/dtmax (rabbits; [2]): 7750 and 7165 and 9815 and 8309 and 8311 and 8034 and 7362
- Δ LV FS (LMV) (rabbits; [2]): 1.0 and -1.5 and 2.0 and -1.0 and -2.5
- Body weight gain (rabbits; [3]): 104.9 and 134.7 and 121.0 and 128.3 and 113.2 and 106.8 and 114.9 and 101.0 and 104.7
- Brain natriuretic peptide mRNA, LV myocardium (rabbits; [3]): 1.55 and 3.15 and 0.69 and 1.65 and 1.04 and 0.65 and 5.19 and 1.00 and 2.01 and 1.22 and 0.48
- Collagen I alpha 1 mRNA (rabbits; [3]): 0.77 and 1.31 and 1.34 and 2.10 and 1.65 and 1.81 and 2.59 and 0.95 and 1.66 and 0.86 and 1.09
- Fibronectin 1 mRNA (rabbits; [3]): 0.87 and 1.85 and 1.50 and 1.99 and 1.56 and 2.18 and 3.87 and 1.34 and 1.94 and 1.25 and 1.18
- LV FS (LMV) (rabbits; [3]): 42.0 and 43.5 and 39.3 and 42.3 and 44.0 and 42.8 and 40.0 and 41.0 and 43.8
- LV dP/dtmax (rabbits; [3]): 8562 and 8147 and 6788 and 7928 and 8340 and 7337 and 7402 and 8558 and 8112 and 8066 and 7973
- Δ LV FS (LMV) (rabbits; [3]): -1.5 and 3.0 and -2.3 and 0.5 and 4.0 and -0.3 and -4.0 and -1.0 and 0.0 and 2.3 and 2.0
- tolerability (rabbits; alone or with DAU, weekly for 10 weeks): well tolerated
- Body weight gain (rabbits; topobexin + DAU): matched the DAU group
- LV expression of BNP (rabbits; topobexin + DAU): prevented by co-administration of topobexin (9)
- LV systolic function (echocardiography) (rabbits; topobexin + DAU): effectively prevented the DAU-induced decrease in LV systolic function
- cardiomyocyte damage, plasma cTnT (rabbits; topobexin + DAU): effectively prevented by topobexin (9)
- survival (rabbits; topobexin + DAU): survived until the scheduled end of the experiment
- Body weight gain (rabbits; topobexin alone): did not differ from the control group
- remaining activity at 0.0625 µM (recombinant human TOP2B; 0.0625 μM, independent replicates, normalized to 0 drug, read-out: Normalized % TOP2B activity): 96.9%
- remaining activity at 0.125 µM (recombinant human TOP2B; 0.125 μM, independent replicates, normalized to 0 drug, read-out: Normalized % TOP2B activity): 95.3%
- remaining activity at 0.25 µM (recombinant human TOP2B; 0.25 μM, independent replicates, normalized to 0 drug, read-out: Normalized % TOP2B activity): 95.6%
- remaining activity at 0.5 µM (recombinant human TOP2B; 0.5 μM, independent replicates, normalized to 0 drug, read-out: Normalized % TOP2B activity): 87%
- remaining activity at 1 µM (recombinant human TOP2B; independent replicates, normalized to 0 drug, read-out: Normalized % TOP2B activity): 74%
- remaining activity at 1 µM (recombinant human TOP2B; independent replicates, read-out: Normalized % TOP2B activity, ATPase): 16.4%
- remaining activity at 2 µM (recombinant human TOP2B; 2 μM, independent replicates, normalized to 0 drug, read-out: Normalized % TOP2B activity): 48.9%
- remaining activity at 4 µM (recombinant human TOP2B; 4 μM, independent replicates, normalized to 0 drug, read-out: Normalized % TOP2B activity): 23.7%
- remaining activity at 8 µM (recombinant human TOP2B; 8 μM, independent replicates, normalized to 0 drug, read-out: Normalized % TOP2B activity): 9.64%
- SRbeta (SRTOP2B), TOP2 ATPase activity (recombinant human TOP2B; TOP2A IC50 divided by TOP2B IC50): 12
- IC50 (recombinant human TOP2B; n=3): 350 nM
- concentration with statistically significant decrease in γH2AX levels (γH2AX; HL-60, DAU, highest concentration tested): 10 µM
- γH2AX level, mean of independent replicates (γH2AX; compound 0.1 µM + DAU 1.2 µM): 85.0292
- γH2AX level, mean of independent replicates (γH2AX; compound 0.3 µM + DAU 1.2 µM): 71.0118
- γH2AX level, mean of independent replicates (γH2AX; compound 1 µM + DAU 1.2 µM): 59.3884
- γH2AX level, mean of independent replicates (γH2AX; compound 3 µM + DAU 1.2 µM): 59.6746
- γH2AX level, mean of independent replicates (γH2AX; compound 10 µM + DAU 1.2 µM): 31.6085
- γH2AX level, mean of independent replicates (γH2AX; compound alone 0.1 µM): 21.4098
- γH2AX level, mean of independent replicates (γH2AX; compound alone 0.3 µM): 25.2396
- γH2AX level, mean of independent replicates (γH2AX; compound alone 1 µM): 23.449
- γH2AX level, mean of independent replicates (γH2AX; compound alone 3 µM): 19.8181
- γH2AX level, mean of independent replicates (γH2AX; compound alone 10 µM): 24.2375
- Csp9 activity, mean (caspase 9; Cmpd 9 10 μM + DAU 1.2 μM): 1.834 fold change
- Csp9 activity (caspase 9; Cmpd 9 10 μM + DAU 1.2 μM): 1.395 fold change and 1.389 fold change and 2.498 fold change and 1.26 fold change and 2.708 fold change and 1.753 fold change
- Csp9 activity, mean (caspase 9; Cmpd 9 10 μM alone): 0.9606 fold change
- Csp9 activity (caspase 9; Cmpd 9 10 μM alone): 0.8436 fold change and 1.03 fold change and 0.994 fold change and 0.6408 fold change and 0.974 fold change and 1.282 fold change
- Csp3/7 activity, mean (caspase 3/7; Cmpd 9 10 μM + DAU 1.2 μM): 1.924 fold change
- Csp3/7 activity (caspase 3/7; Cmpd 9 10 μM + DAU 1.2 μM): 1.455 fold change and 1.638 fold change and 2.77 fold change and 1.323 fold change and 2.6893 fold change and 1.665 fold change
- Csp3/7 activity, mean (caspase 3/7; Cmpd 9 10 μM alone): 0.9751 fold change
- Csp3/7 activity (caspase 3/7; Cmpd 9 10 μM alone): 1.249 fold change and 1.002 fold change and 1.008 fold change and 0.6241 fold change and 0.959 fold change and 1.009 fold change
- DAU-induced apoptotic signaling by caspases 3/7, 8, and 9 (caspase 3/7; NVCM): reduces DAU-induced apoptotic signaling
- concentration providing significant cardioprotection ([1]; NVCM, DAU 1.2 µM): ≥ 1 µM
- minimal effective concentration ([1]; Rattus norvegicus, Cardiomyocyte, NVCM, protection against DAU 1.2 µM, n=4, read-out: LEC = lowest effective concentration): 1 µM
- LDH release, mean ([1]; compound 0.01 µM + DAU 1.2 µM): 39.6717 % of total LDH
- LDH release (protection against DAU), mean of independent replicates ([1]; compound 0.01 µM + DAU 1.2 µM, NVCM, Suppl.Fig.6b): 39.6717
- LDH release ([1]; compound 0.01 µM + DAU 1.2 µM): 48.3922 % of total LDH and 39.9759 % of total LDH and 35.5793 % of total LDH and 34.7393 % of total LDH
- LDH release, mean ([1]; compound 0.1 µM + DAU 1.2 µM): 37.5382 % of total LDH
- LDH release (protection against DAU), mean of independent replicates ([1]; compound 0.1 µM + DAU 1.2 µM, NVCM, Suppl.Fig.6b): 37.5382
- LDH release (protection against DAU), mean of independent replicates ([1]; compound 0.1 µM + DAU 1.2 µM, NVCM, Suppl.Fig.8a): 42.825
- LDH release ([1]; compound 0.1 µM + DAU 1.2 µM): 40.1489 % of total LDH and 41.381 % of total LDH and 32.4516 % of total LDH and 36.1711 % of total LDH
- LDH release, mean ([1]; compound 1 µM + DAU 1.2 µM): 29.7613 % of total LDH
- LDH release (protection against DAU), mean of independent replicates ([1]; compound 1 µM + DAU 1.2 µM, NVCM, Suppl.Fig.6b): 29.7613
- LDH release (protection against DAU), mean of independent replicates ([1]; compound 1 µM + DAU 1.2 µM, NVCM, Suppl.Fig.8a): 37.7816
- LDH release ([1]; compound 1 µM + DAU 1.2 µM): 32.8929 % of total LDH and 30.456 % of total LDH and 27.486 % of total LDH and 28.2102 % of total LDH
- LDH release, mean ([1]; compound 10 µM + DAU 1.2 µM): 24.2662 % of total LDH
- LDH release (protection against DAU), mean of independent replicates ([1]; compound 10 µM + DAU 1.2 µM, NVCM, Suppl.Fig.6b): 24.2662
- LDH release (protection against DAU), mean of independent replicates ([1]; compound 10 µM + DAU 1.2 µM, NVCM, Suppl.Fig.8a): 30.0056
- LDH release ([1]; compound 10 µM + DAU 1.2 µM): 28.5774 % of total LDH and 24.8184 % of total LDH and 21.0698 % of total LDH and 22.5992 % of total LDH
- LDH release, mean ([1]; compound 30 µM + DAU 1.2 µM): 25.2224 % of total LDH
- LDH release (protection against DAU), mean of independent replicates ([1]; compound 30 µM + DAU 1.2 µM, NVCM, Suppl.Fig.6b): 25.2224
- LDH release ([1]; compound 30 µM + DAU 1.2 µM): 28.8537 % of total LDH and 23.9613 % of total LDH and 20.3957 % of total LDH and 27.679 % of total LDH
- LDH release, mean ([1]; compound 100 µM + DAU 1.2 µM): 26.7487 % of total LDH
- LDH release (protection against DAU), mean of independent replicates ([1]; compound 100 µM + DAU 1.2 µM, NVCM, Suppl.Fig.6b): 26.7487
- LDH release (protection against DAU), mean of independent replicates ([1]; compound 100 µM + DAU 1.2 µM, NVCM, Suppl.Fig.8a): 32.5863
- LDH release ([1]; compound 100 µM + DAU 1.2 µM): 31.0584 % of total LDH and 27.7033 % of total LDH and 21.5053 % of total LDH and 26.728 % of total LDH
- lowest concentration with statistically significant cytoprotective effects ([1]; side-by-side comparison with dexrazoxane (Supp Fig 8a)): 0.1 µM
